According to patent US20130184257A1, “PIPERIDINYL-SUBSTITUTED LACTAMS AS GPR119 MODULATORS” (priority 2010, published 2013):

Test system: modified version of the GPR119 receptor (94% identity to human receptor) stably expressed in HEK-293 cells
Test: cAMP Production Assay (LANCE cAMP kit, TR-FRET)
Assay type: cell-based
Conditions: for cAMP production in HEK-293 cells: HEK-293 cells expressing modified GPR119, test compounds 0.2 nM to 10 μM, one-hour incubation at ambient temperature; for Fold over baseline: increase in cAMP relative to basal levels, 1.5-fold or greater = agonist activity
Protocol: The assay utilized HEK-293 cells that stably express a modified version of the GPR119 receptor (94% identity to human receptor), under the control of a CMV promoter containing a tet-on element for tetracycline-inducible expression. GPR119 agonist-induced cyclic AMP (cAMP) production was measured in this cell line using the LANCE cAMP kit (Perkin Elmer, Waltham, Mass.). To generate a working stock of cells for the assay, cells were treated overnight with 1 μg/mL doxycycline at 37° C. in the presence of 5% CO2 to induce receptor expression. Cells were then harvested by enzymatic dissociation with 0.05% trypsin, resuspended in freezing medium (DMEM growth medium with 10% each of fetal bovine serum and DMSO), aliquoted and frozen at −80° C. On the day of the assay, frozen cells were thawed, washed 1× in PBS and resuspended in Hank's buffered salt solution (HBSS) containing 5 mM HEPES, 0.1% BSA and Alexa Fluor 647-conjugated anti-cAMP antibody (diluted 1:100). The cell suspension was then transferred to a Proxiplate Plus white 384-well assay plate (Perkin-Elmer) at 2000 cells/well. Test compounds at final concentrations ranging from 0.2 nM to 10 μM were added to the assay plate, followed by a one-hour incubation at ambient temperature (volume=10 μL/well). DMSO concentration was held constant at 0.5%. After incubation with test compounds, 10 μL of a detergent buffer containing a biotinylated cAMP/Europium-conjugated streptavidin complex (Europium-labeled cAMP tracer) were added to each well on the assay plate, followed by a 2-hour incubation at ambient temperature. During this incubation cAMP released from lysed cells competes with the Europium-labeled cAMP tracer for binding to the Alexa Fluor 647-conjugated antibody. […] Cellular cAMP levels were then determined by interpolation of raw signal data using a cAMP standard curve. Compounds were determined to have agonist activity if they stimulated a 1.5-fold or greater increase in cAMP relative to basal levels.

Structure (SMILES) | cAMP production in HEK-293 cells [nmol] | Fold over baseline
CC(C)c1nc(N2CCC(N3CCC[C@H](Nc4ccc(S(C)(=O)=O)cc4F)C3=O)CC2)no1 [Example 14, (S)-3-(2-fluoro-4-(methylsulfonyl)phenylamino)-1′-(5-isopropyl-1,2,4-oxadiazol-3-yl)-1,4′-bipiperidin-2-one] | 18.9 | 3.5
CS(=O)(=O)c1cc(F)c(N[C@H]2CCN(C3CCN(c4noc(C(F)F)n4)CC3)C2=O)c(F)c1 [Example 31, (S)-3-(2,6-difluoro-4-(methylsulfonyl)phenylamino)-1-(1-(5-(difluoromethyl)-1,2,4-oxadiazol-3-yl)piperidin-4-yl)pyrrolidin-2-one] | 4.9 | 2.3
CCCc1nc(N2CCC(N3CC[C@H](Nc4ccc(S(C)(=O)=O)cc4F)C3=O)CC2)no1 [Example 37] | 12.2 | 3.7
CC(C)c1noc(N2CCC(N3CC[C@@H](Oc4cc(F)c(S(C)(=O)=O)cc4F)C3=O)CC2)n1 [Example 4, (R)-3-(2,5-difluoro-4-(methylsulfonyl)phenoxy)-1-(1-(3-isopropyl-1,2,4-oxadiazol-5-yl)piperidin-4-yl)pyrrolidin-2-one] | 18.7 | 3.9
CC(C)c1nc(N2CCC(N3CC[C@H](Oc4ccc(S(C)(=O)=O)cc4F)C3=O)CC2)no1 [Example 18, (S)-3-(2-fluoro-4-(methylsulfonyl)phenoxy)-1-(1-(5-isopropyl-1,2,4-oxadiazol-3-yl)piperidin-4-yl)pyrrolidin-2-one] | 19.4 | 3.7
CC(C)c1noc(N2CCC(N3CCC[C@H](Nc4ccc(S(C)(=O)=O)cc4F)C3=O)CC2)n1 [Example 7, (S)-3-(2-fluoro-4-(methylsulfonyl)phenylamino)-1′-(3-isopropyl-1,2,4-oxadiazol-5-yl)-1,4′-bipiperidin-2-one] | 27.8 | 5.7
CS(=O)(=O)c1cc(F)c(N[C@H]2CCN(C3CCN(c4noc(C(F)F)n4)CC3)C2=O)cc1F [Example 30, (S)-3-(2,5-difluoro-4-(methylsulfonyl)phenylamino)-1-(1-(5-(difluoromethyl)-1,2,4-oxadiazol-3-yl)piperidin-4-yl)pyrrolidin-2-one] | 7.5 | 3.1
CCc1noc(N2CCC(N3CC[C@H](Oc4ccc(S(C)(=O)=O)cc4F)C3=O)CC2)n1 [Example 6, (S)-1-(1-(3-ethyl-1,2,4-oxadiazol-5-yl)piperidin-4-yl)-3-(2-fluoro-4-(methylsulfonyl)phenoxy)pyrrolidin-2-one] | 22.5 | 4.9
CS(=O)(=O)c1ccc(O[C@H]2CCN(C3CCN(c4noc(C(F)(F)F)n4)CC3)C2=O)c(F)c1 [Example 24, (S)-3-(2-fluoro-4-(methylsulfonyl)phenoxy)-1-(1-(5-(trifluoromethyl)-1,2,4-oxadiazol-3-yl)piperidin-4-yl)pyrrolidin-2-one] | 81.6 | 4.4
CS(=O)(=O)c1ccc(N[C@H]2CCN(C3CCN(c4noc(-c5ccccn5)n4)CC3)C2=O)c(F)c1 [Example 38, (S)-3-(2-fluoro-4-(methylsulfonyl)-phenylamino)-1-(1-(5-(pyridin-2-yl)-1,2,4-oxadiazol-3-yl)piperidin-4-yl)pyrrolidin-2-one] | 9.0 | 3.5
CC[C@H](C)c1nc(N2CCC(N3CC[C@H](Nc4ccc(S(C)(=O)=O)cc4F)C3=O)CC2)no1 [Example 41, (S)-1-(1-(5-sec-butyl-1,2,4-oxadiazol-3-yl)piperidin-4-yl)-3-(2-fluoro-4-(methylsulfonyl)phenylamino)-pyrrolidin-2-one] | 15.9 | 4.0
CS(=O)(=O)c1ccc(N[C@H]2CCN(C3CCN(c4noc(C5CC5)n4)CC3)C2=O)c(F)c1 [Example 45, (S)-1-(1-(5-cyclopropyl-1,2,4-oxadiazol-3-yl)piperidin-4-yl)-3-(2-fluoro-4-(methylsulfonyl)-phenylamino)-pyrrolidin-2-one] | 13.3 | 5.3
CS(=O)(=O)c1ccc(N[C@H]2CCN(C3CCN(c4noc(C(F)(F)F)n4)CC3)C2=O)cn1 [Example 57, (S)-3-((6-(methylsulfonyl)pyridin-3-yl)amino)-1-(1-(5-(trifluoromethyl)-1,2,4-oxadiazol-3-yl)piperidin-4-yl)pyrrolidin-2-one] | 27.2 | 3.7
CCC(F)(F)c1nc(N2CCC(N3CC[C@H](Nc4ccc(S(C)(=O)=O)cc4F)C3=O)CC2)no1 [Example 47, (S)-1-(1-(5-(1,1-difluoropropyl)-1,2,4-oxadiazol-3-yl)piperidin-4-yl)-3-(2-fluoro-4-(methylsulfonyl)-phenylamino)pyrrolidin-2-one] | 17.2 | 2.5
CS(=O)(=O)c1cc(F)c(N[C@H]2CCCN(C3CCN(c4noc(C(F)F)n4)CC3)C2=O)c(F)c1 [Example 32, (S)-3-(2,6-difluoro-4-(methylsulfonyl)phenylamino)-1′-(5-(difluoromethyl)-1,2,4-oxadiazol-3-yl)-1,4′-bipiperidin-2-one] | 7.9 | 2.4
CC(C)c1nc(N2CCC(N3CC[C@H](Oc4cc(F)c(S(C)(=O)=O)cc4F)C3=O)CC2)no1 [Example 19, (S)-3-(2,5-difluoro-4-(methylsulfonyl)phenoxy)-1-(1-(5-isopropyl-1,2,4-oxadiazol-3-yl)piperidin-4-yl)pyrrolidin-2-one] | 24.9 | 4.1
CC(F)(F)c1nc(N2CCC(N3CCC[C@H](Oc4cc(F)c(S(C)(=O)=O)cc4F)C3=O)CC2)no1 [Example 55, (S)-3-(2,5-difluoro-4-(methylsulfonyl)phenoxy)-1′-(5-(1,1-difluoroethyl)-1,2,4-oxadiazol-3-yl)-[1,4′-bipiperidin]-2-one] | 17.3 | 3.7
CS(=O)(=O)c1cc(F)c(O[C@H]2CCN(C3CCN(c4noc(-c5ccccc5)n4)CC3)C2=O)cc1F [Example 17, (S)-3-(2,5-difluoro-4-(methylsulfonyl)phenoxy)-1-(1-(5-phenyl-1,2,4-oxadiazol-3-yl)piperidin-4-yl)pyrrolidin-2-one] | 28.3 | 4.8
CS(=O)(=O)c1cc(F)c(O[C@H]2CCN(C3CCN(c4nc(C(F)(F)F)no4)CC3)C2=O)cc1F [Example 11, (S)-1-(1-(3-trifluoromethyl-1,2,4-oxadiazol-5-yl)piperidin-4-yl)-3-(2,5-difluoro-4-(methylsulfonyl)phenoxy)pyrrolidin-2-one] | 13.5 | 4.0
CS(=O)(=O)c1ccc(N[C@H]2CCN(C3CCN(c4noc(CC(F)(F)F)n4)CC3)C2=O)c(F)c1 [Example 36, (S)-3-(2-fluoro-4-(methylsulfonyl)phenylamino)-1-(1-(5-(2,2,2-trifluoroethyl)-1,2,4-oxadiazol-3-yl)piperidin-4-yl)pyrrolidin-2-one] | 9.9 | 4.3
CS(=O)(=O)c1cc(F)c(O[C@@H]2CCN(C3CCN(c4noc(C(F)(F)F)n4)CC3)C2=O)cc1F (single isomer, unassigned) [Example 66] | 8.7 | 2.7
CS(=O)(=O)c1cc(F)c(N[C@H]2CCN(C3CCN(c4nc(C(F)(F)F)no4)CC3)C2=O)cc1F [Example 59, (S)-3-((2,5-difluoro-4-(methylsulfonyl)phenyl)amino)-1-(1-(3-(trifluoromethyl)-1,2,4-oxadiazol-5-yl)piperidin-4-yl)pyrrolidin-2-one] | 25.7 | 3.9
CS(=O)(=O)c1ccc(N[C@H]2CCN(C3CCN(c4noc(C5CCCC5)n4)CC3)C2=O)c(F)c1 [Example 43, (S)-1-(1-(5-cyclopentyl-1,2,4-oxadiazol-3-yl)piperidin-4-yl)-3-(2-fluoro-4-(methylsulfonyl)-phenylamino)-pyrrolidin-2-one] | 14.7 | 3.6
CC(F)(F)c1nc(N2CCC(N3CCC[C@H](Nc4cc(F)c(S(C)(=O)=O)cc4F)C3=O)CC2)no1 [Example 48, (S)-3-(2,5-difluoro-4-(methylsulfonyl)phenylamino)-1′-(5-(1,1-difluoroethyl)-1,2,4-oxadiazol-3-yl)-1,4′-bipiperidin-2-one] | 8.4 | 2.3
